Data on one sequence can be found in PMC12108424, “Genetically Modified Mesenchymal Stromal/Stem Cells as a Delivery Platform for SE-33, a Cathelicidin LL-37 Analogue: Preclinical Pharmacokinetics and Tissue Distribution in C57BL/6 Mice” (Antibiotics, 2025).

Where no end group is shown, it is not given here.

Data set [1] can be described thus: in vivo. More on the design: species or system C57BL/6 mice. The method, then: (§1) The studies were conducted on sexually mature male C57BL/6 mice with an average body weight of 20 g and an age of 8 weeks. The animals were sourced from the “Andreevka”, branch of the Scientific Center of Biomedical Technologies of the Russian Federal Medical and Biological Agency (Russia). The mice underwent a 14-day acclimatization period. The animals were housed in individually ventilated polysulfone cages ISO RAIR 4 × 8 (LabProducts, Aberdeen, WA, USA) with Rehofix MK2000 corn cob bedding (J. Rettenmaier and Söhne GmbH, Rosenberg, Germany). The animal housing environment followed a 12-h light/dark cycle with an ad libitum access to water and standard laboratory feed. The group assignment was based on body weight, ensuring a no more than 10% deviation from the average group weight. All experimental procedures were approved by the Local Ethics Committee (LEC) of the Federal State Budgetary Educational Institution of Higher Education “Privolzhsky Research Medical University” Ministry of Health of the Russian Federation (Protocol No. 06, dated 29 April 2022) and adhered to the guidelines for the care and use of laboratory animals.
(§2) Immediately prior to administration, WJ-MSC-SE33 cells were resuspended in a saline solution (0.9% NaCl). The mice were divided into groups (n = 48) and fasted for 8 h before intravenous injection. The injection volume was calculated based on body weight. Single-dose administrations were 1 × 10^5 cells/mouse (0.5 × 10^7 cells/kg), 2.5 × 10^5 cells/mouse (1.25 × 10^7 cells/kg), and 5 × 10^5 cells/mouse (2.5 × 10^7 cells/kg) (Figure 4B). Repeated administrations were conducted on days 1, 3, and 5 at a dose of 1 × 10^5 cells/mouse (Figure 4B).
(§3) The 0 h time point represents samples obtained from animals prior to WJ-MSC-SE33 injection (pre-dose baseline). SE-33 concentrations at baseline were established as 0 μg/mL since the peptide was undetectable (<LLOQ) in all pre-dose samples, confirming the absence of endogenous expression. Blood samples were collected into tubes without an anticoagulant and centrifuged at 3000 rpm for 15 min at room temperature. Then, serum samples were isolated and placed in cryovials. Samples of peripheral tissues (lungs, liver, and spleen) were collected at similar time points. Blood and tissue samples were stored at −79 °C.
(§4) Thawed mouse serum was centrifuged at 12,000 rpm for 30 min using a MiniSpin centrifuge (Eppendorf, Hamburg, Germany). The supernatant was collected and diluted 20-fold with 20 mM TrisHCl (pH 7.8). For peripheral tissue samples, 100 mg of thawed tissue was weighed using Sartorius CPA225D scales (Sartorius, Göttingen, Germany) and homogenized in 1.6 mL of acidified ethanol (0.5 mL HCl in 1000 mL ethanol) using a Heidolph Diax 100 homogenizer (Heidolph Instruments, Schwabach, Germany) at 25,000 rpm on ice for 1 min. The homogenate was centrifuged at 12,000 rpm for 30 min. The supernatant was collected and diluted 20-fold with 20 mM Tris-HCl (pH 7.8).
(§5) To construct a protein that specifically binds to the SE-33 peptide ([…]), a complementary sequence with a high affinity to the SE-33 was calculated using the Antimicrobial Peptide Database APD3 [94, 95]. The sequence was cloned into a plasmid and expressed in E. coli strain BL21(DE3). The protein was then isolated and purified using a Ni-NTA column. Purified protein was conjugated with Epoxy-activated Sepharose 6B, creating a sorbent (Epoxy-Protein Sepharose) with a binding capacity of 240 μg/mL for the SE-33 peptide.
A column containing 5 mL of Epoxy-Protein Sepharose was equilibrated with 20 mM TrisHCl (pH 7.8). The sample was applied to the column via a 2 mL loop, followed by washing with 25 mL of 20 mM TrisHCl (pH 7.8). The SE-33 peptide was eluted with 5 mL of 75 mM NaCl in 20 mM TrisHCl (pH 7.8) without fractionation. The eluate enriched with the SE-33 peptide was subjected to solid-phase extraction. […]

The nature of data set [2]: in vivo. Further details: species or system C57BL/6 mice. Particulars: iv. The method, then: as §1, §2
as §3, with “Blood samples were collected from the subclavian artery at 4, 8, 12, 16, 20, 24, 36, and 48 h post-administration (n = 6 animals/time point) (Figure 1B). […] The 0” for “The 0”
as §4, §5
A column containing 5 mL of Epoxy-Protein Sepharose was equilibrated with 20 mM TrisHCl (pH 7.8). The sample was applied to the column via a 2 mL loop, followed by washing with 25 mL of 20 mM TrisHCl (pH 7.8). The SE-33 peptide was eluted with 5 mL of 75 mM NaCl in 20 mM TrisHCl (pH 7.8) without fractionation. […]

Details of data set [3]: species or system C57BL/6 mice. Particulars: mouse, in vivo. As to the method:
The tissue availability and distribution of SE-33 peptide were further assessed using the following parameters: fT: tissue penetration factor. This parameter reflects the ratio of drug exposure in tissues relative to plasma or serum and is used to assess antimicrobial drug distribution at the target site and to guide therapy selection. In this study, fT was calculated using the following equation:(4) fT=AUC0–t(tissue)/AUC0–t(serum) This approach, commonly applied in evaluating drug distribution within extravascular compartments, particularly for antimicrobial agents, is consistent with its established definition in pharmacokinetics as the tissue-to-plasma AUC ratio [99, 100].

Data set [4] relates to fungi and yeast. Further details: method as in PMID 38391576, doi:10.1134/S1068162019020158, PMID 40072070. To be noted: in vitro; cited from earlier work.
The test system of data set [5] is S. aureus. Further details: method as in PMID 38391576, doi:10.1134/S1068162019020158, PMID 40072070. To be noted: in vitro; cited from earlier work.
For data set [6], the system named is E. coli. Further details: method as in PMID 38391576, doi:10.1134/S1068162019020158, PMID 40072070. To be noted: in vitro; cited from earlier work.

“SETRPVLNRLFDKIRQVRKEFGKIKEKSRKFM [SE-33]”: in data set [1] (male, C57BL/6, mouse, iv), the AUC(0-t) turned out to be 2010 ng·h/mL and the Tmax worked out at 8 h. The same sequence returned a Cmax in data set [1] (male, C57BL/6, mouse, iv, Cmax) of 142 ng/mL. In data set [1] (male, C57BL/6, mouse, iv, MRT0–∞), this sequence came in with an MRT of 10.4 h. In addition, the half-life in data set [1] (male, C57BL/6, mouse, iv, T1/2 (elimination half-life)) is 4.8 h. In addition, in data set [1] (mouse), the “persistence of the peptide in tissues” value is “up to 48 h”. Further, in data set [1] (mouse, iv), the “SE-33 concentration at 8 h” value is on record as 0.043 μg/mL, the “SE-33 level in liver exceeding that in the lungs” value was found to be 4 fold and the “SE-33 levels within 2 h post-intravenous administration” value is “no detectable SE-33 levels”. In data set [2] (male, C57BL/6, mouse), the AUC is 8210 ng·h/mL, the AUC(0-inf) came out at 8050 ng·h/mL, the peak concentration (Cmax) turned out to be 233 ng/mL and the Tmax was 8 h. Besides, the half-life in data set [2] (male, C57BL/6, mouse) was 23.1 h. This sequence also registered an MRT in data set [2] (male, C57BL/6, mouse, MRT4–24) of 34.2 h. Besides, the MRT in data set [2] (male, C57BL/6, mouse, MRT4–∞) was 31.4 h. Besides, in data set [2] (mouse), the time to peak (Tmax) came to 4 h. Besides, in data set [3], the “increase of fT relative to the highest single dose” value amounted to 20.0% and the “rise of fT” value turned out to be 25.0%. Further, in data set [4], the “minimum inhibitory concentration (MIC)” value is 31.2 to 1024 µg/mL. Also, the “minimum inhibitory concentration (MIC)” value in data set [5] was 12.5 µg/mL. Further, the “minimum bactericidal concentration (MBC)” value in data set [6] is 20 µg/mL.

The AUC(0-t) is exposure summed from dosing to a finite time, without extrapolation to infinity. The Tmax is the time at which the peak concentration occurs. For orientation: Cmax means the highest concentration seen after dosing. Broadly, the MRT is the average time that molecules of a dose stay in the body. The term half-life denotes the time in which the quantity being followed falls by half. In general, AUC refers to the area under the concentration-time curve, a measure of exposure. Read a high AUC as high exposure. The term AUC(0-inf) denotes the area under the concentration-time curve extrapolated to infinity. High values mean high exposure, low ones low exposure.
